Source: patent US20050113337A1, “Enhancement of oral bioavailability of non-emulsified formulations of prodrug esters with lecithin” (TAP Pharmaceutical Products, Inc., priority 2001, published 2005)

How the values were obtained:
[1] = test system: Carboxylesterase from porcine liver; experiment: Esterase degradation of cefditoren pivoxil; format: in vitro ADME; conditions: 20 minutes, 37° C.; for amount of cefditoren pivoxil remaining: esterase; for % cefditoren pivoxil remaining: simulated intestinal fluid
Protocol: First, a test was performed to determine whether cefditoren pivoxil is degraded by esterase. 25 mg of cefditoren pivoxil (available from Meiji Saika Kaisha Ltd of Japan) was dissolved in 100 ml of an aqueous solution containing 10% dimethylsulfoxide and 0.1 N. hydrochloric acid to make up an 0.25 mg/ml solution. Carboxylesterase (also referred to as esterase herein) from porcine liver (15 mg protein/ml, 250 units/mg protein, available from Sigma-Aldrich) was dissolved in simulated intestinal fluid (SIF having no added pancreatin, available from Sigma-Aldrich) to make up a solution having 0.5 units/ml.
2 ml of the cefditoren pivoxil solution was then mixed with 2 ml of the esterase solution and 2 ml of simulated intestinal fluid. This mixture was allowed to react for 20 minutes at 37° C. and then the reaction was quenched with 1.0 ml of acetonitrile. This procedure was repeated with esterase at two other concentrations.
The experimental procedure was as described above, except that the cefditoren pivoxil was dissolved in 3% lecithin (LECI-PC 35 P, available from Traco Labs of IL).
The amount of cefditoren pivoxil remaining in each of the samples was determined by HPLC, and compared to the amount of cefditoren pivoxil of a control solution. The control solution was 2.0 ml cefditoren pivoxil, 2.0 ml of 10% modified lecithin solution and 2.0 ml simulated intestinal fluid incubated and then quenched as above.

[2] = Solubility of cefditoren pivoxil in lecithin dispersions; format: physicochemical
Protocol: The solubility of cefditoren pivoxil in various lecithins was determined as follows. Three types of lecithin were tested: lecithin (LECI-PC 35P available from Traco Labs, IL), modified lecithin (containing 70% maltodextrin and 30% phosphatidyl choline; ALCOLEC SM 100 available from American Lecithin Inc. of CT) and hydroxylated lecithin (CENTROLENE A, available from Central Soya, IN). 5%, 10% and 15% suspensions of each type of lecithin were made up in distilled deionized water to form the test dispersions. Cefditoren pivoxil (available from Meiji Saika Kaisha Ltd of Japan) was added to each test dispersion. Each sample was vortexed for one minute, sonicated for two minutes, vortexed again for one minute and then centrifuged at 2000 rpm for ten minutes at room temperature. The resulting supernatant fraction was collected, filtered through a 0.45 μm filter and analyzed by HPLC.

## cefditoren pivoxil
[1]; cefditoren pivoxil dissolved in 3% lecithin (LECI-PC 35 P)
  amount of cefditoren pivoxil remaining: 57.4%
[1]; control (non-lecithin containing) solution
  amount of cefditoren pivoxil remaining: 7%
[1]; esterase concentration 0.05 units/ml
  % cefditoren pivoxil remaining: 81.9%
[1]; esterase concentration 0.5 units/ml
  % cefditoren pivoxil remaining: 4.5%
[1]; esterase concentration 5 units/ml
  % cefditoren pivoxil remaining: 0.3%
[2]; in aqueous lecithin solution (LECI-PC 35P)
  solubility: 678.5 µg/mL
[2]; in hydroxylated lecithin (CENTROLENE A)
  solubility: 715.0 µg/mL
[2]; in modified lecithin (ALCOLEC SM 100)
  solubility: 868.1 µg/mL
[2]; in water alone
  solubility: 31.8 µg/mL
